Results as given in PMC6288471 (Frontiers in Veterinary Science, 2018).
“Also recorded” adds a separate entry of the source. Read-outs that look alike come from different tables or passages of the source.

Assay: Pharmacokinetics of apixaban after oral and intravenous administration; plasma concentrations by UPLC-MS, two-compartment model
Type: in vivo
Conditions: horses; for half-life / clearance / Vd: iv
Procedure: The first and last treatments for each horse were IV administration of drug or placebo (Figure 1). […] Investigators were blinded to each treatment until the conclusion of the study.
Blood samples were collected before drug administration (time 0) and at 3 (IV) or 15 (PO) min, then at 30, 45 min, 1, 2, 3, 4, 6, 8, and 24 h after drug administration into 6-mL syringes (Monoject Syringe, Covidien Ltd, Mansfield, MA, USA) prefilled with 3.8% citrate anticoagulant (Sigma-Aldrich, St Louis, MO, USA) maintaining a ratio of 9:1 blood:citrate. The citrate-anticoagulated blood was used to prepare platelet-poor plasma (PPP) for measurement of UPLC-MS concentrations, anti-Xa activities and dilute prothrombin times (dPT) and platelet-rich plasma (PRP) for flow cytometric analysis of ex vivo platelet activation in response to exposure to EHV-1. Blood was also collected into EDTA- and non-anticoagulant samples for clinical pathologic testing before and 24 h after each treatment (Figure 1). With the exception of 24 h samples, blood was collected at each time point through an indwelling jugular catheter (14 G × 15 cm, Milacath®, MILA International, Florence, KY, USA) after removing 20–30 mL of blood. Patency of the catheters was maintained by flushes with sterile saline solution (0.9% sodium chloride injection USP, Baxter Healthcare Corporation, Deerfield, IL, USA) after each blood draw. The catheter was removed after collection of the 8 h sample. For IV administration, a second catheter was placed in the opposite jugular vein for bolus drug delivery and removed immediately after drug administration and flushing of the catheter with sterile saline. For the 24 h sample, blood was collected from the jugular vein (the vein contralateral to that used for the indwelling catheter) into a 3.8% citrate anticoagulant prefilled 6-mL syringe via an 18 G needle (Monoject Veterinary Needle, Covidien Ltd, Mansfield, MA, USA) and into EDTA- and non-anticoagulant vacutainers (Becton-Dickinson, Franklin Lakes, NJ, USA) via a vacutainer needle (21 G, Becton-Dickinson Eclipse™ Vacutainer® with pre-attached holder).
This was performed as previously described ([33]). Analysis by UPLC-MS/MS was performed on a 2D UPLC system (Waters Acquity UPLC H-class with 2D Technology System, Waters GmbH, Eschborn, Germany) directly coupled to a Xevo TQ-S tandem mass spectrometer (Waters GmbH, Eschborn, Germany) which was operated in electrospray positive ionization mode. The system control and data acquisition were performed using MassLynx NT 4.1 software with automated data processing by the MassLynx QuanLynx program provided with the instrument. The lower limit of detection for all DOACs of the UPLC-MS/MS method was < 0.2 ng/mL. Since DOAC values < 7 ng/ml were not clinically relevant, all time points below this value were considered zero.
Pharmacokinetic analysis was performed using a two-compartment open model with weighting of 1/y^2 (Phoenix®, WinNonlin® software, Certara Inc., St. Louis, Missouri).
Secondary parameters calculated include distribution (α) and elimination (β) half-lives (T½), microdistribution rate constants, area-under-the-curve (AUC), apparent volume of distribution at steady-state (VSS), systemic clearance (CL), and mean residence time (MRT).

[1] = single oral dose 0.2 mg/kg, 0.2 mg/kg

COc1ccc(-n2nc(C(N)=O)c3c2C(=O)N(c2ccc(N4CCCCC4=O)cc2)CC3)cc1 [apixaban]
half-life (horse, plasma, IV administration, read-out: elimination half-life (converted)): 1.3 ± 0.2 h | clearance (horse, plasma, IV administration, read-out: rate of clearance (converted)): 2.53 mL/min/kg | Vd (horse, plasma, IV administration, read-out: volume of distribution (VDSS)): 0.0933 ± 0.0756 L/kg | Tmax (horse, plasma, IV administration, read-out: time of peak plasma concentration (converted)): 3 min | volume of distribution (VDSS) (IV administration): ~ 90 mL/kg | time by which plasma apixaban decreased to undetectable levels (IV administration, all horses): ≤ 8 h | apixaban in plasma after oral administration (UPLC-MS) [1]: no detectable apixaban in plasma; also recorded: not detected in plasma | oral absorption [1]: not orally absorbed | clearance (plasma, single IV dose […], read-out: CL (systemic clearance), geometric mean (converted)): 2.45 mL/min/kg | clearance (plasma, single IV dose […], read-out: CL (systemic clearance), mean (converted)): 2.53 mL/min/kg | Vd (plasma, single IV dose […], read-out: VC (apparent volume of distribution for central compartment), geometric mean): 0.0164 L/kg | Vd (plasma, single IV dose […], read-out: VC (apparent volume of distribution for central compartment), mean): 0.0201 L/kg | Vd (plasma, single IV dose […], read-out: VSS (volume of distribution at steady-state), geometric mean): 0.0718 L/kg | Vd (plasma, single IV dose […], read-out: VSS (volume of distribution at steady-state), mean): 0.0933 L/kg | half-life (plasma, single IV dose […], read-out: t½β (half-life of the elimination phase), geometric mean (converted)): 1.27 h | half-life (plasma, single IV dose […], read-out: t½β (half-life of the elimination phase), mean (converted)): 1.28 h
